In PubChem BioAssay AID330 (DTP/NCI, 2004) one finds T/C data, which are given here for 15 compounds.

SMILES strings stand for the structures. Several values for one entry are separate records, joined by “and”; a condition that tells them apart may be missing. Equal values may be shown once. Toxic doses and inconclusive results are not listed.

The assay relates to P388 leukemia ip, CD2F1 mice, survival T/C. Description: NCI In Vivo Anticancer Drug Screen. Data for tumor model P388 Leukemia (intraperitoneal) in CD2F1 (CDF1) mice. The conditions noted are these: endpoint: median survival time, higher = longer survival. In outline:
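Mice carrying the transplanted tumor received test compound or vehicle. Survival was recorded in each group, and the value is the treated-group measurement divided by that of the vehicle-treated control group.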

Setting [1] is: dose: 1.56 mg/kg/injection, schedule: Q01DX009 (ip), vehicle: saline.
Where [2] appears, read: dose: 3.12 mg/kg/injection, schedule: Q01DX009 (ip), vehicle: saline.
The mark [3] stands for this setting: dose: 50.0 mg/kg/injection, schedule: Q01DX005 (ip), vehicle: Klucel (hydroxypropylcellulose) (HPC).
Where [4] appears, read: dose: 100.0 mg/kg/injection, schedule: Q01DX005 (ip), vehicle: Klucel (hydroxypropylcellulose) (HPC).
Setting [5] is: dose: 50.0 mg/kg/injection, schedule: Q01DX009 (ip), vehicle: saline.
[6] abbreviates: dose: 12.5 mg/kg/injection, schedule: Q01DX005 (ip), vehicle: Klucel (hydroxypropylcellulose) (HPC).
[7] abbreviates: dose: 12.5 mg/kg/injection, schedule: Q01DX009 (ip), vehicle: saline.
Setting [8] is: dose: 25.0 mg/kg/injection, schedule: Q01DX009 (ip), vehicle: saline.

Regarding `CC[CH](C)[Sn](=[O])[CH](C)CC` (stereo not drawn), the T/C was 97 % of control (dose: 0.78 mg/kg/injection, schedule: Q01DX009 (ip), vehicle: saline); 105 % of control under setting [1]; 113 % of control under setting [2].
Take `CCC1(O)CC2CN(CCc3c([nH]c4ccccc34)C(C(=O)OC)(c3cc4c(cc3OC)N(C)C3C(O)(C(=O)NCCO)C(O)C5(CC)C=CCN6CCC43C65)C2)C1` (stereo not drawn): the T/C was 105 % of control (dose: 0.13 mg/kg/injection, schedule: Q01DX009 (ip), vehicle: water); 150 % of control (dose: 0.2 mg/kg/injection, schedule: Q01DX009 (ip), vehicle: saline); 117 % of control (dose: 0.22 mg/kg/injection, schedule: Q01DX009 (ip), vehicle: water); 122 % of control (dose: 0.36 mg/kg/injection, schedule: Q01DX009 (ip), vehicle: water); 167 % of control (dose: 0.4 mg/kg/injection, schedule: Q01DX009 (ip), vehicle: saline); 153 % of control (dose: 0.6 mg/kg/injection, schedule: Q01DX009 (ip), vehicle: water). The T/C is 183 % of control (dose: 0.63 mg/kg/injection, schedule: Q04DX003 (ip), vehicle: saline); 96 % of control (dose: 0.8 mg/kg/injection, schedule: Q01DX009 (ip), vehicle: saline); 104 % of control (dose: 1.0 mg/kg/injection, schedule: Q01DX009 (ip), vehicle: water); 223 % of control (dose: 1.25 mg/kg/injection, schedule: Q04DX003 (ip), vehicle: saline); 274 % of control (dose: 2.5 mg/kg/injection, schedule: Q04DX003 (ip), vehicle: saline).
For the compound `O=[N+]([O-])c1ccccc1N/N=C\c1c(Cl)[nH]c2ccccc12`, the T/C is, setting by setting: under setting [3], 90 % of control; under setting [4], 95 % of control; (dose: 100.0 mg/kg/injection, schedule: Q04DX002 (ip), vehicle: Klucel (hydroxypropylcellulose) (HPC)) 90 % of control; (dose: 200.0 mg/kg/injection, schedule: Q04DX002 (ip), vehicle: Klucel (hydroxypropylcellulose) (HPC)) 91 % of control; (dose: 400.0 mg/kg/injection, schedule: Q04DX002 (ip), vehicle: Klucel (hydroxypropylcellulose) (HPC)) 95 % of control.
In the case of `O=C(S[Si](c1ccccc1)(c1ccccc1)c1ccccc1)c1ccccc1`, the T/C by setting is: under setting [5], 102 % of control; (dose: 100.0 mg/kg/injection, schedule: Q01DX009 (ip), vehicle: saline) 110 % of control.
With `Nc1ncc(CCCOc2ccccc2)c(=O)[nH]1`, the T/C is, setting by setting: (dose: 100.0 mg/kg/injection, schedule: Q01DX001 (ip), vehicle: saline with Tween-80) 90 % of control; (dose: 200.0 mg/kg/injection, schedule: Q01DX001 (ip), vehicle: saline with Tween-80) 90 % of control; (dose: 400.0 mg/kg/injection, schedule: Q01DX001 (ip), vehicle: saline with Tween-80) 90 % of control.
Turning to `C=CC(=NC(C)(C)C)Nc1ccccc1OC`, the T/C is, setting by setting: under setting [1], 99 % of control and 89 % of control; (dose: 3.12 mg/kg/injection, schedule: Q01DX005 (ip), vehicle: Klucel (hydroxypropylcellulose) (HPC)) 117 % of control; under setting [2], 111 % of control and 86 % of control and 98 % of control; (dose: 6.25 mg/kg/injection, schedule: Q01DX005 (ip), vehicle: Klucel (hydroxypropylcellulose) (HPC)) 117 % of control; (dose: 6.25 mg/kg/injection, schedule: Q01DX009 (ip), vehicle: saline) 102 % of control and 120 % of control and 95 % of control; under setting [6], 114 % of control.
`O=C(Nc1ccccc1)/C(N=Nc1ccccc1Cl)=N\Nc1cc(S(=O)(=O)O)ccc1Cl`: the T/C under setting [3] is 103 % of control; the T/C under setting [4] is 102 % of control; the T/C (dose: 200.0 mg/kg/injection, schedule: Q01DX005 (ip), vehicle: Klucel (hydroxypropylcellulose) (HPC)) was 107 % of control.
In the case of `O=C(O)C1(NO)CCCCC1`, the T/C was 105 % of control (dose: 25.0 mg/kg/injection, schedule: Q01DX009 (ip), vehicle: Klucel (hydroxypropylcellulose) (HPC)); 107 % of control and 110 % of control and 115 % of control (dose: 50.0 mg/kg/injection, schedule: Q01DX009 (ip), vehicle: Klucel (hydroxypropylcellulose) (HPC)); 107 % of control and 119 % of control (dose: 50.0 mg/kg/injection, schedule: Q01DX009 (ip), vehicle: saline with Tween-80); 105 % of control and 108 % of control and 119 % of control (dose: 100.0 mg/kg/injection, schedule: Q01DX009 (ip), vehicle: Klucel (hydroxypropylcellulose) (HPC)); 120 % of control and 123 % of control (dose: 100.0 mg/kg/injection, schedule: Q01DX009 (ip), vehicle: saline with Tween-80); 111 % of control and 87 % of control (dose: 200.0 mg/kg/injection, schedule: Q01DX009 (ip), vehicle: Klucel (hydroxypropylcellulose) (HPC)). Also, the T/C (dose: 200.0 mg/kg/injection, schedule: Q01DX009 (ip), vehicle: saline with Tween-80) is 99 % of control and 119 % of control; the T/C (dose: 400.0 mg/kg/injection, schedule: Q01DX009 (ip), vehicle: Klucel (hydroxypropylcellulose) (HPC)) was 110 % of control and 96 % of control; the T/C (dose: 600.0 mg/kg/injection, schedule: Q01DX009 (ip), vehicle: Klucel (hydroxypropylcellulose) (HPC)) was 101 % of control and 98 % of control.
As for `CN1CC[C@]23c4c5ccc(O)c4O[C@H]2C(=O)CC[C@H]3[C@H]1C5`, the T/C runs as follows: (dose: 12.5 mg/kg/injection, schedule: Q01DX005 (iv), vehicle: saline) 99 % of control and 102 % of control; under setting [7], 108 % of control; (dose: 25.0 mg/kg/injection, schedule: Q01DX005 (iv), vehicle: saline) 102 % of control and 106 % of control; under setting [8], 111 % of control; (dose: 50.0 mg/kg/injection, schedule: Q01DX005 (iv), vehicle: saline) 99 % of control and 102 % of control; under setting [5], 103 % of control and 97 % of control. Further, the T/C runs as follows: (dose: 100.0 mg/kg/injection, schedule: Q01DX005 (iv), vehicle: saline) 101 % of control; (dose: 200.0 mg/kg/injection, schedule: Q01DX005 (iv), vehicle: saline) 102 % of control.
For the compound `CCOC(=O)N/C=C/C(C)=O`, the T/C is, setting by setting: (dose: 60.0 mg/kg/injection, schedule: Q01DX005 (ip), vehicle: saline with Tween-80) 98 % of control; (dose: 120.0 mg/kg/injection, schedule: Q01DX005 (ip), vehicle: saline with Tween-80) 100 % of control; (dose: 240.0 mg/kg/injection, schedule: Q01DX005 (ip), vehicle: saline with Tween-80) 106 % of control.
As to `O=C(O)CSc1nc(-c2ccccc2)c(-c2ccccc2)n1-c1ccccn1`, the T/C is 103 % of control and 124 % of control (dose: 25.0 mg/kg/injection, schedule: Q01DX009 (ip), vehicle: water); 108 % of control and 97 % of control (dose: 50.0 mg/kg/injection, schedule: Q01DX009 (ip), vehicle: water); 118 % of control and 122 % of control and 86 % of control (dose: 100.0 mg/kg/injection, schedule: Q01DX009 (ip), vehicle: water); 115 % of control and 86 % of control (dose: 200.0 mg/kg/injection, schedule: Q01DX009 (ip), vehicle: water).
As for `C/C(=C\[P+](c1ccccc1)(c1ccccc1)c1ccccc1)N1CC1`, the T/C was 107 % of control and 115 % of control (dose: 6.0 mg/kg/injection, schedule: Q01DX001 (ip), vehicle: saline with Tween-80); 101 % of control and 113 % of control (dose: 9.0 mg/kg/injection, schedule: Q01DX001 (ip), vehicle: saline with Tween-80); 105 % of control and 108 % of control (dose: 12.0 mg/kg/injection, schedule: Q01DX001 (ip), vehicle: saline with Tween-80); 123 % of control (dose: 12.5 mg/kg/injection, schedule: Q01DX001 (ip), vehicle: saline with Tween-80); 105 % of control and 113 % of control (dose: 18.0 mg/kg/injection, schedule: Q01DX001 (ip), vehicle: saline with Tween-80).
For the compound `COc1ccc(C(CC(=O)O)C(N)C(=O)O)cc1` (stereo not drawn), the T/C was 88 % of control (dose: 50.0 mg/kg/injection, schedule: Q01DX009 (ip), vehicle: suspension in saline); 87 % of control (dose: 100.0 mg/kg/injection, schedule: Q01DX009 (ip), vehicle: suspension in saline); 95 % of control (dose: 200.0 mg/kg/injection, schedule: Q01DX009 (ip), vehicle: suspension in saline).
Regarding `COC(=O)C(N)Cc1ccc(OCc2ccccc2)cc1` (stereo not drawn), the T/C under setting [7] is 102 % of control; the T/C under setting [8] is 102 % of control; the T/C (dose: 25.0 mg/kg/injection, schedule: Q04DX002 (ip), vehicle: saline with Tween-80) is 97 % of control; the T/C under setting [5] was 100 % of control and 101 % of control; the T/C (dose: 50.0 mg/kg/injection, schedule: Q04DX002 (ip), vehicle: saline with Tween-80) was 108 % of control.
For `CONC(=O)N/N=C/c1c(CO)cnc(C)c1O`, the T/C under setting [6] is 104 % of control; the T/C (dose: 25.0 mg/kg/injection, schedule: Q01DX005 (ip), vehicle: Klucel (hydroxypropylcellulose) (HPC)) was 100 % of control; the T/C under setting [3] was 94 % of control.
